Assay results reported in PubChem BioAssay (NCI).
“And” between values parts separate entries of the source, which are not always exact repeats. Identical values can stand only once.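 1) Cells in 96-well plates. 2) Compound, 48 h, 5 concentrations. 3) Linear interpolation between surrounding doses. 4) Unreached endpoint = highest concentration. GI50 marks 50% less growth. TGI: concentration producing complete growth inhibition.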

Assays:
Assay in all cases: growth of human tumour cells (NCI), 48 h
[1] = tested on: HCC-2998 colon
[2] = tested on: COLO 205 colon
[3] = tested on: HCT-15 colon
[4] = tested on: ACHN renal
[5] = tested on: T-47D breast
[6] = tested on: NCI-H226 lung
[7] = tested on: HCT-116 colon
[8] = tested on: SNB-19 CNS
[9] = tested on: DU-145 prostate
[10] = tested on: OVCAR-4 ovarian

Row | SMILES | GI50 [1] | TGI [1] | GI50 [2] | TGI [2] | GI50 [3] | TGI [3] | GI50 [4] | TGI [4] | GI50 [5] | TGI [5] | GI50 [6] | TGI [6] | GI50 [7] | TGI [7] | GI50 [8] | TGI [8] | GI50 [9] | TGI [9] | GI50 [10] | TGI [10]
1 | CC(CN=C(CC(=O)c1ccc(Br)cc1)c1ccccc1)N=C(CC(=O)c1ccc(Br)cc1)c1ccccc1 (stereo not given) | 99.1 µM | > 100 µM | 7.58 µM | > 100 µM | 43.6 µM | > 100 µM | 48 µM | > 100 µM | 3.09 µM | > 100 µM | 67.3 µM | > 100 µM | 2.75 µM | > 100 µM | > 100 µM | > 100 µM | 64.4 µM | > 100 µM | 8.15 µM | > 100 µM
2 | O=C1c2ccccc2C(=O)c2c(NCCCNCCO)ccc(NCCCNCCO)c21 | – | 16.7 µM | – | 18.9 µM | – | 29.8 µM | – | 25.5 µM | – | 68.2 µM | – | 12.3 µM | – | 16.8 µM | – | 20.9 µM | – | 35.8 µM | – | 26.9 µM
3 | COc1cc(C)c(C(=O)O[C@H]2[C@H](O[C@H]3[C@@H](O)COC(O[C@H]4C[C@H]5[C@@H]6CC=C7C[C@@H](O)CC[C@]7(C)[C@H]6CC[C@]5(C)[C@H]4[C@H](C)C(=O)CCC(C)C)[C@@H]3OC(C)=O)OC[C@@H](O)[C@@H]2O)c(C)c1 (stereo not given in full) | 2.41 µM | 20.3 µM | 0.0307 µM | 0.382 µM | 0.0543 µM | 1.94 µM | 0.0767 µM | 18.6 µM | 0.0249 µM | 16.7 µM | 0.135 µM | 12.4 µM | < 0.01 µM | 2.29 µM | < 0.01 µM | 4.93 µM | 1.52 µM | 21.9 µM | 0.571 µM | 69.9 µM
4 | C[C@]12O[C@H](C[C@]1(O)CO)n1c3ccccc3c3c4c(c5c6ccccc6n2c5c31)CNC4=O | 0.33 µM and 0.237 µM | 2.5 µM and 2.96 µM | 0.0916 µM and 0.129 µM | 0.5 µM and 0.87 µM | 0.0605 µM and 0.0598 µM | 5.91 µM and 9.52 µM | 0.0222 µM and 0.0168 µM | > 6.5 µM and 3.13 µM | 0.0791 µM and 0.337 µM | 1.55 µM and 2.16 µM | 0.267 µM and 0.272 µM | 1.79 µM and 2.05 µM | 0.0291 µM and 0.0408 µM | – | 0.546 µM and 0.544 µM | 4.08 µM and 3.22 µM | 0.0881 µM and 0.11 µM | > 10 µM and 10.2 µM | 0.891 µM and 1.4 µM | 4.99 µM and 7.19 µM
5 | S=c1nc(-c2nc(=S)[nH]c3c2CCCCCCCCCC3)c2c([nH]1)CCCCCCCCCC2 | – | > 100 µM | – | > 100 µM | – | > 100 µM | – | > 100 µM | – | > 100 µM | – | > 100 µM | – | > 100 µM | – | > 100 µM | – | > 100 µM | – | > 100 µM
6 | CN(C)C[C@H]1CC[C@@H](CN(C)C)C1=O | – | > 37.5 µM | 0.759 µM | 11.3 µM | – | 11 µM | – | 15.1 µM | – | 23.6 µM | – | 32.3 µM | – | 15.6 µM | – | > 50 µM | – | > 50 µM | – | 16.3 µM
7 | C(=N\Nc1nnc2c(n1)[nH]c1ccccc12)/c1cccnc1 | – | > 100 µM | – | > 100 µM | – | > 100 µM | – | > 100 µM | – | > 100 µM | – | > 100 µM | – | > 100 µM | – | > 100 µM | – | > 100 µM | – | > 100 µM
8 | CN(C)CCCNc1nn2c(=O)c3ccccc3nc2c2ccccc12 | 11.6 µM | 26.9 µM | 2.39 µM | 13 µM | 7.05 µM | 30.2 µM | 3.75 µM | 15 µM | 12.7 µM | 33.6 µM | 5.13 µM | 25.5 µM | 3.72 µM | 15.7 µM | 13.2 µM | 43.9 µM | 10.4 µM | 28.4 µM | 10.4 µM | 22.4 µM
